Measurements taken from US8318424B2, “High-throughput RNA structure analysis” (The University of North Carolina at Chapel Hill, priority 2006, dated 2012).

Assays:
NCp7-RNA interactions = target: T1, NCp7-RNA interactions (Human immunodeficiency virus type 1 group M subtype B, UniProt P12493); assay: AT-2 treatment of HIV-1 virions analyzed by hSHAPE; details: in virio compared with AT-2 treated virions
T1 construct: expressed in transfected cells; host or cells: 293T cells cotransfected with pNL4-3 and pHCMV-G; the protein sits in the released virus particles
Text: The most prominent protein ligand for genomic RNA in mature HIV virions is the nucleocapsid protein. The nucleocapsid protein (NCp7) contains two highly conserved zinc-knuckle motifs comprised of cysteine and histidine residues that coordinate zinc ions and bind preferentially to guanosine. These compact motifs are flanked by positively charged residues that interact at adjacent RNA elements. Zinc ejecting agents such as 2,2′-dithioldipyridine (or AT-2) quantitatively disrupt interactions between the zinc ion and its cysteine ligands to compromise NCp7-RNA interactions, but leave the surface of the virus particle intact. Nucleocapsid-RNA interactions were disrupted in situ by treating virions with AT-2. The resulting genomic RNA was analyzed using hSHAPE.
Aldrithiol-2 (AT-2, systematic name 2,2′-dithiodipyridine; 0.5 M in DMSO, 2.0 mL) or DMSO (2.0 mL) was added to 1.0 L virus supernatant and incubated overnight at 4° C. Virus particles from the (+) and (−) AT-2 experiments were pelleted separately by centrifugation (110,000 g, 4° C., 1.5 hours) through a 20% (w/v) sucrose cushion in phosphate buffered saline. Pellets were resuspended in 1.0 mL NMIA reaction buffer (50 mM Hepes (pH 8), 200 mM NaCl, 0.1 mM EDTA, and 10% fetal bovine serum). […]

[1] = Reagent hydrolysis followed by UV absorbance of the aminobenzoate product; assay type: physicochemical
Experimental: One (1) μL NMIA in DMSO was added to the (+) NMIA tube and 1 μL neat DMSO was added to the (−) NMIA tube. The tubes were then mixed well. The reaction was incubated for 5 NMIA hydrolysis half-lives. To estimate the NMIA half-life between 15° C. and 75° C., the following equation was used: half life(minutes)=360×exp[−0.102×temperature(° C.)]. […] Thus, at 37° C., the reaction was incubated for about 45 minutes.
(§1) Hydrolysis was followed by adding (1.5 mM NMIA or 2.0 mM 1M7 in 300 μL DMSO) reagent to 1.1× buffer (2.7 mL, 6.7 mM MgCl2, 111 mM NaCl, 111 mM HEPES (pH 8.0)) equilibrated at 37° C. in a cuvette. Pseudo-first-order rates were obtained by monitoring the absorbance of the hydrolysis product (at 360 nm for 2-methylaminobenzoate and 430 nm for 2-methylamino-4-nitrobenzoate). Rates of adduct formation for [^32P]-labeled pAp-ethyl (10,000 cpm/μL) were obtained by adding 10% (v/v) reagent (5 mM final NMIA or 1M7 in DMSO) to 1.1× reaction buffer, quenching the reaction with 1 vol 250 mM dithiothreitol, resolving by gel electrophoresis (30% polyacrylamide; 29:1 acrylamide:bisacrylamide; 0.4 mm×28.5 cm×23 cm; 30 W; 45 minutes), and quantifying by phosphorimaging. Reaction rates were obtained using an equation that accounts for parallel reaction of NMIA or 1M7 by 2′-O-adduct formation (kadduct) and by hydrolysis (khydrolysis): fraction product=1−exp[(kadduct[reagent]/khydrolysis)(e^−(khydrolysis)t−1)]. Synthesis of Bacillus subtilis RNase P RNA
The reagent hydrolysis was monitored as the increase in UV absorbance of the aminobenzoate products. […] In contrast, NMIA required over 20 minutes to react to completion (FIG. 5).

pAp-ethyl = assay: 2′-O-adduct formation with [32P]-labeled pAp-ethyl; details: for change in rate of reaction with pAp-ethyl from 0 to 20 mM Mg2+: 0 to 20 mM Mg2+ (FIG. 6)
Experimental: as §1
The ability of each compound to react with 3′-phosphoethyl-5′-adenosine monophosphate (pAp-ethyl) was then evaluated. pAp-ethyl contains a 2′-hydroxyl and 3′-phosphodiester monoanion.

retroviral membrane = assay: NMIA modification of genomic RNA inside HIV-1 viral particles
Experimental: The structure of HIV-1 genomic RNA inside infectious virions was analyzed by treating viral particles with NMIA and then extracting and processing the modified RNA (the in virio state). Numerous reproducible differences between the ex virio and in virio states were observed that report virion-specific RNA structures and RNA-protein interactions.
Concentrated samples of either purified viral particles or particles treated with AT-2 (500 μL) in NMIA reaction buffer were treated with NMIA (50 μL, 100 mM) or neat DMSO (50 μL) for 50 minutes at 37° C. The virus particle production, AT-2 treatment, and NMIA modification steps were performed as a single continuous process and without intermediate storage steps.

[2] = Solubility of reagent stock in DMSO; assay type: physicochemical; details: organic solvent or mixture; 10× stock in DMSO; read-out: stock concentration limit due to solubility of the reagent
Experimental: The concentration of this solution can vary with RNA length. For RNA reads of 100, 200 and 300 nucleotides, 10×NMIA concentrations of 130, 65 and 30 mM, can be used.

Row | SMILES | specificity of the effect of AT-2 treatment on SHAPE reactivity of genomic RNA (NCp7-RNA interactions) | time until reaction is complete ([1]; 37° C., pH 8.0 buffer) | half-life at 0.2 mM ([1]; HEPES buffer with 10% DMSO, 37° C., pH 8.0 buffer, 10% DMSO) [min] | dependence of hydrolysis on Mg2+ concentration ([1]; control experiments) | increase in rates of hydrolysis and of 2′-hydroxyl acylation relative to NMIA (pAp-ethyl) [fold] | change in rate of reaction with pAp-ethyl from 0 to 20 mM Mg2+ (pAp-ethyl) | rate of reaction with pAp-ethyl, compared with NMIA (pAp-ethyl; 5 mM reagent) | time required to react to completion ([1]; 37° C., pH 8.0 buffer) | half-life ([1]; pH 8, 37° C., from half life = 360×exp[−0.102×temperature], read-out: NMIA hydrolysis half-life) [min] | passage across the retroviral membrane (retroviral membrane) | solubility [2] [mM]
1 | c1ccc(SSc2ccccn2)nc1 [AT-2, 2,2′-dithiodipyridine] | highly specific |  |  |  |  |  |  |  |  |  | 
2 | Cn1c(=O)oc(=O)c2ccc([N+](=O)[O-])cc21 [1M7, 1-methyl-7-nitroisatoic anhydride] |  | about 70 seconds | 0.233 | independent of Mg^2+ concentration | 20 | negligible | significantly more rapidly |  |  |  | 
3 | Cn1c(=O)oc(=O)c2ccccc21 [NMIA, N-methylisatoic anhydride] |  |  |  |  |  | greater than 2 fold |  | over 20 minutes | 8.3 | readily crosses the retroviral membrane | ≤ 130
